Like-named read-outs stand apart in the source and are kept apart here.
How the values were obtained:
Experiment in all cases: In vitro competitive activity-based protein profiling (gel-based, FP-Rh or HT-01 probe)
Format in all cases: biochemical
FAAH = molecular target: T1, FAAH (Mus musculus, UniProt O08914); details: for inhibition at 1 µM: 1 μM inhibitor, read-out: % Inhibition at 1 μM, B = FAAH; for inhibition at 10 µM: 10 μM inhibitor, read-out: % Inhibition at 10 μM, B = FAAH; for IC50: mouse brain membrane fraction or cell lysates, 30 min preincubation at 37° C., read-out: Mouse (IC50 value, nM) FAAH
T1 construct: Proteomes (mouse brain membrane fraction or cell lysates); from tissue; host or cells: mouse brain membrane fraction (or cell lysates, not specified)
T1 sequence (O08914 1-579): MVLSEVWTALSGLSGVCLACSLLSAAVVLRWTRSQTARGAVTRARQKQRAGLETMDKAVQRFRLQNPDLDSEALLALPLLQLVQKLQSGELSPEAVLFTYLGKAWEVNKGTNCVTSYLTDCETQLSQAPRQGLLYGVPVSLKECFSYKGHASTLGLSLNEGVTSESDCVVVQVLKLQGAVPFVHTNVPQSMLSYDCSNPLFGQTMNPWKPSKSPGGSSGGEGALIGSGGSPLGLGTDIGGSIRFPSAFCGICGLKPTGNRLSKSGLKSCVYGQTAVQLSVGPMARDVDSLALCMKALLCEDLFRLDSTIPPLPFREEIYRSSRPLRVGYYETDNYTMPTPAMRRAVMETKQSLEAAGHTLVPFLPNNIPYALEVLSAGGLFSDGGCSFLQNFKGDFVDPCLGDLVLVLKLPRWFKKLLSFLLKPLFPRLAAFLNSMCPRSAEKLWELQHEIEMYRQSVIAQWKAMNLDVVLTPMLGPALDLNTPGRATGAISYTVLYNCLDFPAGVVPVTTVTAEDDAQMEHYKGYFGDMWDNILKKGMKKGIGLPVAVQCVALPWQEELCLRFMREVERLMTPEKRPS
Summary of the method: (§1)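 Competitive labelling format in mouse brain membrane fractions or lysates at 1.0 mg/mL total protein: compounds preincubate 30 min at 37° C, activity probe FP-Rh or HT-01 then reacts 30 min at 37° C. Gel band fluorescence gives target activity.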

PLA2G7 = molecular target: T2, PLA2G7 (Mus musculus, UniProt Q60963); details: for inhibition at 1 µM: 1 μM inhibitor, read-out: % Inhibition at 1 μM, D = PLA2G7; for inhibition at 10 µM: 10 μM inhibitor, read-out: % Inhibition at 10 μM, D = PLA2G7
T2 construct: Proteomes (mouse brain membrane fraction or cell lysates); from tissue; host or cells: mouse brain membrane fraction (or cell lysates, not specified)
T2 sequence (Q60963 22-440): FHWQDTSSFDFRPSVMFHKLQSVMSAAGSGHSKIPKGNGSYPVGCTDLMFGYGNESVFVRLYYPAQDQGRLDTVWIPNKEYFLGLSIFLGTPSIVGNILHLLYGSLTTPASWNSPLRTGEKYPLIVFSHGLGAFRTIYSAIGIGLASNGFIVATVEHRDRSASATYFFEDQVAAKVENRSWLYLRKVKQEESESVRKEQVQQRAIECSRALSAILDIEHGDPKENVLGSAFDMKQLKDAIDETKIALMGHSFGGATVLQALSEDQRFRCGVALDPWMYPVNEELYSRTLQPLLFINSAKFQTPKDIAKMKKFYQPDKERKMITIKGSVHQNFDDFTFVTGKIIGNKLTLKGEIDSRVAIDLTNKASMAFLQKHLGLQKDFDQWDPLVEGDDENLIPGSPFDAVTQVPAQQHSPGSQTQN
Summary of the method: as §1

ABHD6 = molecular target: T3, ABHD6 (Mus musculus, UniProt Q8R2Y0); details: for inhibition at 1 µM: 1 μM inhibitor, read-out: % Inhibition at 1 μM, C = ABHD6; for inhibition at 10 µM: 10 μM inhibitor, read-out: % Inhibition at 10 μM, C = ABHD6; for IC50: mouse brain membrane fraction or cell lysates, 30 min preincubation at 37° C., read-out: Mouse (IC50 value, nM) ABHD6
T3 construct: Proteomes (mouse brain membrane fraction or cell lysates); from tissue; host or cells: mouse brain membrane fraction (or cell lysates, not specified)
T3 sequence (Q8R2Y0 1-336): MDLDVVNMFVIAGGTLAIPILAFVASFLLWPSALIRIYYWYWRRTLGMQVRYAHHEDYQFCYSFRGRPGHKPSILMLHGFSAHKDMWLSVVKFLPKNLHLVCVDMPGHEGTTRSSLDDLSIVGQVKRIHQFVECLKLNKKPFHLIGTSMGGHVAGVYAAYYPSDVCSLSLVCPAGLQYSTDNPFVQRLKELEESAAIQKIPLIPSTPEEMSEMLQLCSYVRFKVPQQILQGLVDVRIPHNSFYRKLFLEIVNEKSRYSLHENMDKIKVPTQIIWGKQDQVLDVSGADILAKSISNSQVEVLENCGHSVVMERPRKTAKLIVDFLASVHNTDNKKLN
Summary of the method: as §1

MAGL = molecular target: T4, MAGL (Mus musculus, UniProt O35678); details: for inhibition at 1 µM: 1 μM inhibitor; for inhibition at 10 µM: 10 μM inhibitor; for IC50: mouse brain membrane fraction or cell lysates, 30 min preincubation at 37° C., read-out: Mouse (IC50 value, nM) MAGL
T4 construct: Proteomes (mouse brain membrane fraction or cell lysates); from tissue; host or cells: mouse brain membrane fraction (or cell lysates, not specified)
T4 sequence (O35678 1-303): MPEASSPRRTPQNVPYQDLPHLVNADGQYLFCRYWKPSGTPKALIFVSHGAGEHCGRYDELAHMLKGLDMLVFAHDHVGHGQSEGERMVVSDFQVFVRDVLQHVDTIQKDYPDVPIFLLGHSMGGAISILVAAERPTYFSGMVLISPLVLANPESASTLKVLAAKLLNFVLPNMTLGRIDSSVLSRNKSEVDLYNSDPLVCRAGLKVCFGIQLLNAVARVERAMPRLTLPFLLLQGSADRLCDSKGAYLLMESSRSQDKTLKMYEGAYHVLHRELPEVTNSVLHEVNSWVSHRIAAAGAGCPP
Summary of the method: as §1

Row | Compound | inhibition at 1 µM (FAAH) [%] | inhibition at 10 µM (FAAH) [%] | inhibition at 1 µM (PLA2G7) [%] | inhibition at 10 µM (PLA2G7) [%] | inhibition at 1 µM (ABHD6) [%] | inhibition at 10 µM (ABHD6) [%] | inhibition at 1 µM (MAGL) [%] | inhibition at 10 µM (MAGL) [%] | inhibition at 1 µM (FAAH; gel-based competitive ABPP) [%] | IC50 (FAAH) [nM] | inhibition at 1 µM (PLA2G7; gel-based competitive ABPP) [%] | IC50 (PLA2G7; mouse brain membrane fraction or cell lysates, 30 min preincubation at 37° C.) [nM] | inhibition at 1 µM (ABHD6; gel-based competitive ABPP) [%] | IC50 (ABHD6) [nM] | inhibition at 1 µM (MAGL; gel-based competitive ABPP) [%] | IC50 (MAGL) [nM] | inhibition at 10 µM (FAAH; gel-based competitive ABPP) [%] | inhibition at 10 µM (PLA2G7; gel-based competitive ABPP) [%] | inhibition at 10 µM (ABHD6; gel-based competitive ABPP) [%] | inhibition at 10 µM (MAGL; gel-based competitive ABPP) [%]
1 | CN(CCN(C)C(=O)n1cccn1)C(=O)OC(C)(C)C [Example 28, tert-Butyl methyl(2-(N-methyl-1H-pyrazole-1-carboxamido)ethyl)carbamate] | < 25 | 25 to 75 | < 25 | < 25 | < 25 | 25 to 75 | < 25 | 25 to 75 | – | – | – | – | – | – | – | – | – | – | – | –
2 | O=C(N1CCN(Cc2cccc(F)c2)CC1)n1cc(C(F)(F)F)cn1 [Example 269, (4-(3-Fluorobenzyl)piperazin-1-yl)(4-(trifluoromethyl)-1H-pyrazol-1-yl)methanone] | – | – | – | – | – | – | – | – | > 75 | < 100 | > 75 | < 100 | > 75 | < 100 | > 75 | < 100 | – | – | – | –
3 | Cc1cnn(C(=O)N2CCN(Cc3ccc4ccccc4c3)CC2)c1 [Example 11, (4-Methyl-1H-pyrazol-1-yl)(4-(naphthalen-2-ylmethyl)piperazin-1-yl)methanone] | < 25 | 25 to 75 | < 25 | > 75 | > 75 | > 75 | > 75 | > 75 | – | – | – | – | – | – | – | – | – | – | – | –
4 | CCN(Cc1cccc(OC)c1)C(=O)n1cc(Cl)cn1 [Example 128, 4-Chloro-N-ethyl-N-(3-methoxybenzyl)-1H-pyrazole-1-carboxamide] | – | > 75 | – | < 25 | – | > 75 | – | > 75 | – | 100 to 1000 | – | – | – | > 1000 | – | > 1000 | – | – | – | –
5 | CC(C)(C)OC(=O)N1CCCN(C(=O)n2cccn2)CC1 [Example 25, tert-Butyl 4-(1H-pyrazole-1-carbonyl)-1,4-diazepane-1-carboxylate] | < 25 | < 25 | < 25 | < 25 | < 25 | 25 to 75 | < 25 | < 25 | – | – | – | – | – | – | – | – | – | – | – | –
6 | CC(=O)N(C)CCN(C)C(=O)n1cc(C#N)cn1 [Example 181, 4-Cyano-N-methyl-N-(2-(N-methylacetamido)ethyl)-1H-pyrazole-1-carboxamide] | < 25 | > 75 | < 25 | > 75 | < 25 | > 75 | < 25 | < 25 | – | – | – | – | – | – | – | – | – | – | – | –
7 | CN(CCN(C)C(=O)n1cc(Cl)cn1)C(=O)c1ccccc1 [Example 194, 4-Chloro-N-methyl-N-(2-(N-methylbenzamido)ethyl)-1H-pyrazole-1-carboxamide] | 25 to 75 | > 75 | < 25 | < 25 | < 25 | < 25 | < 25 | 25 to 75 | – | – | – | – | – | – | – | – | – | – | – | –
8 | Cc1cnn(C(=O)N2CCN(Cc3cccc(Oc4ccccc4)c3)CC2)c1 [Example 294, (4-Methyl-1H-pyrazol-1-yl)(4-(3-phenoxybenzyl)piperazin-1-yl)methanone] | – | – | – | – | – | – | – | – | > 75 | – | < 25 | – | > 75 | – | > 75 | – | – | – | – | –
9 | CC(=O)N(C)CCN(C)C(=O)n1cc(C(F)(F)F)cn1 [Example 159, N-Methyl-N-(2-(N-methylacetamido)ethyl)-4-(trifluoromethyl)-1H-pyrazole-1-carboxamide] | < 25 | 25 to 75 | < 25 | > 75 | < 25 | > 75 | < 25 | < 25 | – | – | – | – | – | – | – | – | – | – | – | –
10 | Cc1cc(N2CCN(C(=O)n3cc(C#N)cn3)CC2)c2ccccc2n1 [Example 209, 1-(4-(2-Methylquinolin-4-yl)piperazine-1-carbonyl)-1H-pyrazole-4-carbonitrile] | > 75 | > 75 | > 75 | > 75 | > 75 | > 75 | > 75 | > 75 | – | – | – | – | – | – | – | – | – | – | – | –
11 | O=C(N1CCN(Cc2ccc(-c3ccccc3)cc2OCc2ccccc2)CC1)n1cc(C(F)(F)F)cn1 [Example 147, (4-((3-(Benzyloxy)biphenyl-4-yl)methyl)piperazin-1-yl)(4-(trifluoromethyl)-1H-pyrazol-1-yl)methanone] | > 75 | > 75 | < 25 | > 75 | > 75 | > 75 | > 75 | > 75 | – | – | – | – | – | – | – | – | – | – | – | –
12 | O=C(c1cnn(C(=O)N2CCN(Cc3ccc(-c4ccccc4)cc3Cl)CC2)c1)N1CCCC1 [Example 289, (4-((3-Chlorobiphenyl-4-yl)methyl)piperazin-1-yl)(4-(pyrrolidine-1-carbonyl)-1H-pyrazol-1-yl)methanone] | – | – | – | – | – | – | – | – | > 75 | – | > 75 | – | > 75 | – | > 75 | – | > 75 | > 75 | > 75 | > 75
13 | O=C(N1CCN(C(c2ccc(Cl)cc2)c2ccc(Cl)cc2)CC1)n1cc(-c2ccc(C(F)(F)F)cc2)cn1 [Example 124, (4-(Bis(4-chlorophenyl)methyl)piperazin-1-yl)(4-(4-(trifluoromethyl)phenyl)-1H-pyrazol-1-yl)methanone] | – | < 25 | 25 to 75 | > 75 | > 75 | > 75 | – | 25 to 75 | – | – | – | – | – | – | – | – | – | – | – | –

Reference: patent US10093630B2, “Pyrazole compounds and methods of making and using same” (ABIDE THERAPEUTICS, INC., priority 2014, dated 2018)
